≈ marks a conversion by molar mass, not a printed value. Read-outs that look alike come from different tables or passages of the source.
Key:
[1] = tested on: T1, Escherichia coli FDA-CDC 149; assay: microbe, parasite or virus in culture; parameters: broth microdilution minimal inhibitory concentration against multidrug-resistant clinical isolates; details: FDACDC149, NDM
T1 construct: FDA-CDC 149
Excerpt: (§1) Using broth microdilution minimal inhibitory concentration (MIC) testing, we determined the MIC of S-F, S-D, and nourseothricin for a large group of multidrug-resistant CRE. These included strains expressing metallo- and/or serine carbapenemases and the pandrug-resistant, NDM-1–expressing Klebsiella pneumoniae Nevada strain, AR-0663 [18]. For these CRE (n = 39), MIC50 and MIC90 for S-F, S-D, and nourseothricin, respectively, were 2 and 4 (range 1 to 4) μM; 0.25 and 0.5 (range 0.25 to 2) μM; and 0.5 and 1 (range 0.25 to 2) μM. The average MIC was 5.6-fold greater for S-F than for S-D and 4.2-fold greater for S-F than for nourseothricin. […] CRE isolates were from the FDA-CDC Antimicrobial Resistance Isolate Bank (AR-Bank) including the Nevada Strain (AR-0636) and the BIDMC clinical collection sequenced as part of the CRE genomics project. A. baumannii isolates were from the AR-Bank and the Multidrug Resistant Organism Repository and Surveillance Network (MRSN) at the Walter Reed Army Institute of Research (WRAIR). Strains are listed in S3 Table. The single ribosomal operon strain, E. coli SQ110, was from the Coli Genetics Stock Center (Yale University, New Haven, CT) and was originally described by Squire and colleagues.

[2] = tested on: T2, Escherichia coli FDA-CDC 128; assay: microbe, parasite or virus in culture; parameters: broth microdilution minimal inhibitory concentration against multidrug-resistant clinical isolates
T2 construct: FDA-CDC 128
Excerpt: as §1

[3] = tested on: T3, Escherichia coli FDA-CDC 118; assay: microbe, parasite or virus in culture; parameters: broth microdilution minimal inhibitory concentration against multidrug-resistant clinical isolates; details: FDACDC118, NDM
T3 construct: FDA-CDC 118
Excerpt: as §1

[4] = tested on: T4, Escherichia coli FDA-CDC 119; assay: microbe, parasite or virus in culture; parameters: broth microdilution minimal inhibitory concentration against multidrug-resistant clinical isolates; details: FDACDC119, NDM
T4 construct: FDA-CDC 119
Excerpt: as §1

[5] = tested on: T5, Klebsiella pneumoniae FDA-CDC 34; assay: microbe, parasite or virus in culture; parameters: broth microdilution minimal inhibitory concentration against multidrug-resistant clinical isolates
T5 construct: FDA-CDC 34
Excerpt: as §1

[6] = tested on: T6, Klebsiella pneumoniae CDC 636; assay: microbe, parasite or virus in culture; parameters: broth microdilution minimal inhibitory concentration against multidrug-resistant clinical isolates; details: CDC636, NDM
T6 construct: CDC 636
Excerpt: as §1

[7] = tested on: T7, Acinetobacter baumannii FDA-CDC 308; assay: microbe, parasite or virus in culture; parameters: broth microdilution minimal inhibitory concentration against multidrug-resistant clinical isolates
T7 construct: FDA-CDC 308
Excerpt: as §1

[8] = tested on: T8, Acinetobacter baumannii FDA-CDC 310; assay: microbe, parasite or virus in culture; parameters: broth microdilution minimal inhibitory concentration against multidrug-resistant clinical isolates
T8 construct: FDA-CDC 310
Excerpt: as §1

[9] = tested on: T9, Acinetobacter baumannii FDA-CDC 311; assay: microbe, parasite or virus in culture; parameters: broth microdilution minimal inhibitory concentration against multidrug-resistant clinical isolates
T9 construct: FDA-CDC 311
Excerpt: as §1

[10] = tested on: T10, Enterobacter aerogenes FDA-CDC 161; assay: microbe, parasite or virus in culture; parameters: broth microdilution minimal inhibitory concentration against multidrug-resistant clinical isolates; details: Klebsiella aerogenes, FDACDC161, IMP-4
T10 construct: FDA-CDC 161
Excerpt: as §1

[11] = tested on: T11, Escherichia coli FDA-CDC 137; assay: microbe, parasite or virus in culture; parameters: broth microdilution minimal inhibitory concentration against multidrug-resistant clinical isolates
T11 construct: FDA-CDC 137
Excerpt: as §1

[12] = tested on: T12, Acinetobacter baumannii FDA-CDC 309; assay: microbe, parasite or virus in culture; parameters: broth microdilution minimal inhibitory concentration against multidrug-resistant clinical isolates
T12 construct: FDA-CDC 309
Excerpt: as §1

[13] = tested on: T13, Escherichia coli BIDMC 9; parameters: broth microdilution minimal inhibitory concentration against multidrug-resistant clinical isolates; details: KPC-2; inhibitor
T13 construct: BIDMC 9
Excerpt: as §1

[14] = tested on: T14, Escherichia coli BIDMC 17; parameters: broth microdilution minimal inhibitory concentration against multidrug-resistant clinical isolates; details: KPC-2; inhibitor
T14 construct: BIDMC 17
Excerpt: as §1

[15] = tested on: T15, Klebsiella pneumoniae BIDMC 5; parameters: broth microdilution minimal inhibitory concentration against multidrug-resistant clinical isolates; details: KPC-3; inhibitor
T15 construct: BIDMC 5
Excerpt: as §1

[16] = tested on: T16, Escherichia coli BIDMC 15; parameters: broth microdilution minimal inhibitory concentration against multidrug-resistant clinical isolates; details: KPC-2; inhibitor
T16 construct: BIDMC 15
Excerpt: as §1

[17] = tested on: T17, Klebsiella pneumoniae BIDMC 10; parameters: broth microdilution minimal inhibitory concentration against multidrug-resistant clinical isolates; details: KPC-3; inhibitor
T17 construct: BIDMC 10
Excerpt: as §1

[18] = tested on: T18, Klebsiella pneumoniae BIDMC 4; parameters: broth microdilution minimal inhibitory concentration against multidrug-resistant clinical isolates; details: KPC-3; inhibitor
T18 construct: BIDMC 4
Excerpt: as §1

[19] = tested on: T19, Klebsiella pneumoniae BIDMC 7; parameters: broth microdilution minimal inhibitory concentration against multidrug-resistant clinical isolates; details: KPC-3; inhibitor
T19 construct: BIDMC 7
Excerpt: as §1

[20] = tested on: T20, Escherichia coli BIDMC 3; parameters: broth microdilution minimal inhibitory concentration against multidrug-resistant clinical isolates; details: KPC-2; inhibitor
T20 construct: BIDMC 3
Excerpt: as §1

[21] = tested on: T21, Escherichia coli BIDMC 6; parameters: broth microdilution minimal inhibitory concentration against multidrug-resistant clinical isolates; details: KPC-2; inhibitor
T21 construct: BIDMC 6
Excerpt: as §1

[22] = tested on: T22, Klebsiella pneumoniae FDA-CDC 117; parameters: broth microdilution minimal inhibitory concentration against multidrug-resistant clinical isolates; details: KPC-3; inhibitor
T22 construct: FDA-CDC 117
Excerpt: as §1

[23] = tested on: T23, Enterobacter cloacae FDA-CDC 136; parameters: broth microdilution minimal inhibitory concentration against multidrug-resistant clinical isolates; details: KPC; inhibitor
T23 construct: FDA-CDC 136
Excerpt: as §1

[24] = tested on: T24, Klebsiella pneumoniae BIDMC 11; parameters: broth microdilution minimal inhibitory concentration against multidrug-resistant clinical isolates; details: KPC-4; inhibitor
T24 construct: BIDMC 11
Excerpt: as §1

[25] = tested on: T25, Klebsiella pneumoniae BIDMC 2; parameters: broth microdilution minimal inhibitory concentration against multidrug-resistant clinical isolates; details: KPC-3; inhibitor
T25 construct: BIDMC 2
Excerpt: as §1

[26] = tested on: T26, Klebsiella pneumoniae BIDMC 1; parameters: broth microdilution minimal inhibitory concentration against multidrug-resistant clinical isolates; details: KPC-3; inhibitor
T26 construct: BIDMC 1
Excerpt: as §1

[27] = tested on: T27, Enterobacter cloacae BIDMC 8; parameters: broth microdilution minimal inhibitory concentration against multidrug-resistant clinical isolates; details: KPC-3; inhibitor
T27 construct: BIDMC 8
Excerpt: as §1

[28] = tested on: T28, Klebsiella oxytoca FDA-CDC 147; parameters: broth microdilution minimal inhibitory concentration against multidrug-resistant clinical isolates; details: KPC; inhibitor
T28 construct: FDA-CDC 147
Excerpt: as §1

[29] = molecular target: T29, rProtein L28 (50S, near the E-site of the A. baumannii 70S ribosome) (Acinetobacter baumannii, UniProt B7I4T0); assay: cryo-EM structure of complex; format: binding; details: 0.1 uM ribosome, 100 uM ligand (not seen at 10 uM); second site, 50S near E-site; presumably nonspecific per authors
T29 construct: gene rpmB; native 50S ribosomal protein within purified 70S ribosome; site near the E-site, contact at H20
T29 sequence (B7I4T0 whole entry): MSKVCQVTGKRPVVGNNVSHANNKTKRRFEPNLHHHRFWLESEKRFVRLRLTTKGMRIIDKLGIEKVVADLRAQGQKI

NCCC[C@H](N)CC(=O)NCCC[C@H](N)CC(=O)NCCC[C@H](N)CC(=O)N[C@@H]1[C@H](O)[C@@H](OC(N)=O)[C@@H](CO)O[C@H]1NC1=N[C@@H]2C(=O)NC[C@@H](O)[C@H]2N1 [S-D, streptothricin D]
MIC ([1]; read-out: S-D MIC): 0.5 µM (≈ 0.379 µg/mL)
MIC ([2]; FDACDC128, NDM-1, read-out: S-D MIC): 1 µM (≈ 0.759 µg/mL)
MIC ([3]; read-out: S-D MIC): 1 µM (≈ 0.759 µg/mL)
MIC ([4]; read-out: S-D MIC): 0.5 µM (≈ 0.379 µg/mL)
MIC ([5]; FDACDC34, IMP-4, read-out: S-D MIC): 0.25 µM (≈ 0.19 µg/mL)
MIC ([6]; read-out: S-D MIC): 0.25 µM (≈ 0.19 µg/mL)
MIC ([7]; FDACDC308, OXA-71, read-out: S-D MIC): 0.25 µM (≈ 0.19 µg/mL)
MIC ([8]; FDACDC310, OXA-23, OXA-82, read-out: S-D MIC): 2 µM (≈ 1.52 µg/mL)
MIC ([9]; FDACDC311, OXA-23, OXA-82, read-out: S-D MIC): 2 µM (≈ 1.52 µg/mL)
MIC ([10]; read-out: S-D MIC): 0.5 µM (≈ 0.379 µg/mL)
MIC ([11]; FDACDC137, NDM-6, read-out: S-D MIC): 0.5 µM (≈ 0.379 µg/mL)
MIC ([12]; FDACDC309, OXA-23, OXA-82, read-out: S-D MIC): 2 µM (≈ 1.52 µg/mL)
S-D MIC [13]: 0.5 µM
S-D MIC [14]: 0.5 µM
S-D MIC [15]: 0.25 µM
S-D MIC [16]: 0.5 µM
S-D MIC [17]: 0.25 µM
S-D MIC [18]: 0.25 µM
S-D MIC [19]: 0.25 µM
S-D MIC [20]: 0.5 µM
S-D MIC [21]: 0.5 µM
S-D MIC [22]: 0.25 µM
S-D MIC [23]: 0.5 µM
S-D MIC [24]: 0.25 µM
S-D MIC [25]: 0.25 µM
S-D MIC [26]: 0.25 µM
S-D MIC [27]: 0.25 µM
S-D MIC [28]: 0.25 µM

NCCC[C@H](N)CC(=O)N[C@@H]1[C@H](O)[C@@H](OC(N)=O)[C@@H](CO)O[C@H]1N=C1N[C@@H]2[C@H](O)CNC(=O)[C@H]2N1 [S-F, streptothricin F]
cryo-EM structure of 70S complex [29]: S-F and S-D overlap at this site, interacting with H20 of rProtein L28
MIC ([1]; read-out: S-F MIC): 4 µM (≈ 2.01 µg/mL)
MIC ([2]; FDACDC128, NDM-1, read-out: S-F MIC): 4 µM (≈ 2.01 µg/mL)
MIC ([3]; read-out: S-F MIC): 4 µM (≈ 2.01 µg/mL)
MIC ([4]; read-out: S-F MIC): 4 µM (≈ 2.01 µg/mL)
MIC ([5]; FDACDC34, IMP-4, read-out: S-F MIC): 2 µM (≈ 1.01 µg/mL)
MIC ([6]; read-out: S-F MIC): 1 µM (≈ 0.503 µg/mL)
MIC ([7]; FDACDC308, OXA-71, read-out: S-F MIC): 1 µM (≈ 0.503 µg/mL)
MIC ([8]; FDACDC310, OXA-23, OXA-82, read-out: S-F MIC): 8 µM (≈ 4.02 µg/mL)
MIC ([9]; FDACDC311, OXA-23, OXA-82, read-out: S-F MIC): 8 µM (≈ 4.02 µg/mL)
MIC ([10]; read-out: S-F MIC): 2 µM (≈ 1.01 µg/mL)
MIC ([11]; FDACDC137, NDM-6, read-out: S-F MIC): 2 µM (≈ 1.01 µg/mL)
MIC ([12]; FDACDC309, OXA-23, OXA-82, read-out: S-F MIC): 8 µM (≈ 4.02 µg/mL)
S-F MIC [13]: 4 µM
S-F MIC [14]: 2 µM
S-F MIC [15]: 2 µM
S-F MIC [16]: 2 µM
S-F MIC [17]: 2 µM
S-F MIC [18]: 2 µM
S-F MIC [19]: 2 µM
S-F MIC [20]: 4 µM
S-F MIC [21]: 2 µM
S-F MIC [22]: 1 µM
S-F MIC [23]: 2 µM
S-F MIC [24]: 2 µM
S-F MIC [25]: 4 µM
S-F MIC [26]: 2 µM
S-F MIC [27]: 4 µM
S-F MIC [28]: 2 µM

— publication PMC10187937, “Streptothricin F is a bactericidal antibiotic effective against highly drug-resistant gram-negative bacteria that interacts with the 30S subunit of the 70S ribosome” (PLOS Biology, 2023)
